Experiment [1] deals with HT1080 cells (fibrosarcoma cells that do not endogenously express SSTR2). In words: MTT cell growth assay of HT1080 cells transfected with HA-SSTR2 wild-type or C-terminal deletions. The settings on record: 5% FBS, with or without 100 nM sandostatin, three days. Type of experiment: cell-based. How it is done: Three days later, MTT assay was used to determine cell number.
In the following experiments, HA-tagged receptors were used.
(§1) Two days after transient transfection with HA-SSTR2D351 or HA-SSTR2D340, 3000 HT1080 cells were grown in the presence of 5% FBS with or without 100 nM of the somatostatin analogue sandostatin. Three days later, MTT assay was used to determine cell number.
(Tetrazolium dyes change colour on reduction, which living cells bring about.)

Experiment [2] deals with HeyA8 tumors. As to the kind of experiment: Growth of HeyA8 tumors injected with adenovirus expressing HA-SSTR2delta340. In kind it is in vivo. The conditions noted are these: HeyA8 tumors in nude mice, intratumoral adenovirus. How it is done:
FIG. 12. Constitutively active SSTR2delta340 inhibits the growth of tumor cells. Nude mice were Injected subcutaneously with HeyA8 tumors cells and then each tumor was injected with adenovirus expressing HA-SSTR2delta340 or control inserts (8 tumors per group). Tumor size was measured by calipers. *p<0.05, tumors injected with adv-HA-SSTR2delta340 and given saline vs tumors injected with adv-GFP and given saline; for clarity only the comparison of these two groups is illustrated with *.
as §1

For experiment [3], the system named is untransfected HT1080 cells admixed with HS5 cells. In words: Bystander cell death, live/dead staining of HS5 mesenchymal stem cells admixed with untransfected HT1080 cells. In kind it is cell-based, human. The settings on record: HS5 stably expressing wild-type or signaling deficient HA-SSTR2 admixed with untransfected HT1080, 24 hours. How it is done:
FIG. 4: Exposure to 90Y-DOTA-octreotate (DOTATATE) results in bystander cell death of tumor cells. Human mesenchymal stem cells (HS5) stably expressing wild-type or signaling deficient HA-SSTR2 receptors or transfected with vector were admixed with untransfected HT1080 cells and then exposed to 90Y-DOTATATE for 24 hours. Then, live (green)/dead (red) staining was performed.
Mixing mesenchymal stem cells expressing SSTR2 or the signaling deficient mutant delta 314 with untransfected tumor cells results in kill of rosettes of clusters of cells that are not seen if mesenchymal stem cells transfected with vector are used (FIG. 4), consistent with bystander killing. Human mesenchymal stem cells (HS5) stably expressing wild-type or signaling deficient HA-SSTR2 receptors or transfected with vector were admixed with untransfected HT1080 cells and then exposed to 90Y-DOTATATE for 24 hours.

The subject of experiment [4] is Mouse ES cell-derived tumors expressing HA-SSTR2 or HA-SSTR2delta314. As to the kind of experiment: Growth of embryonic stem cell-derived teratomas measured by calipers. The settings on record: tumors derived from wild type ES cells, i.v. twice. In kind it is in vivo, nude mice. How it is done: Mouse ES cells (these are pluripotent stem cells that can be used to create transgenic mice and like most ES cells result in teratomas when injected in nude mice) were transfected with a plasmid containing HA-SSTR2 or HA-SSTR2delta314. Clones were then selected for expression. The cells were then injected into nude mice subcutaneously and tumor size was measured by calipers. After tumors were present in three locations per mouse in all 8 mice, the animals were injected i.v. with 90-Y labeled octreotate two days and 5 days later.
After tumors were present in three locations per mouse in all 8 mice, the animals were injected i.v. with 90-Y labeled octreotate two days and 5 days later as on the chart. Tumor size was measured by calipers. Unlike many stem cells, embryonic stem cells (ES) more commonly form teratomas. Inhibition of growth of established teratomas was assessed.

For experiment [5], the system named is HT1080 tumors expressing HA-SSTR2 wild-type, HA-D314 or vector. How it is done: (§2) Stably transfected HT1080 cells were implanted subcutaneously in nude mice (three tumors, HA-wt, HA-D314, vector, per animal). When tumors were palpable, daily injections of the somatostatin analogue sandostatin were initiated and tumors were measured by calipers every two days.
(§3) Stably transfected HT1080 cells were implanted subcutaneously in nude mice (three tumors, HA-wt, HA-D314, vector, per animal).
(§4) Stably transfected HT1080 cells were implanted subcutaneously in nude mice (three tumors, HA-wt, HA-D314, vector, per animal). When tumors were palpable, 90Y-octreotate was given once at a dose of 1 mCi (FIG. 7A) or twice at doses of 2 mCi and 1 mCi (FIG. 7B).
as §2, §3, §4

Experiment [6] has as its system HT1080 cells expressing wild-type or signaling deficient HA-SSTR2 receptors, or vector transfected. In words: Cell death by trypan blue uptake in stably transfected HT1080 cells. Type of experiment: cell-based. How it is done: Stably transfected HT1080 cells were exposed to different amounts of ^90Y-DOTATATE for 1 hour and 72 hours.
Experiment [7] has as its system Human ovarian cancer (Hey A8) tumors incorporating HS5 cells. As to the kind of experiment: Growth of Hey A8 tumors co-injected with HS5 cells expressing or not expressing HA-SSTR2D314. In kind it is in vivo, nude mice. The conditions noted are these: intravenous. The text has this:
FIG. 8: Stem cells expressing the signaling deficient mutant SSTR2D314 incorporate into tumor and can be targeted with a therapeutic for Inhibiting tumor growth.
Stem cells expressing the signaling deficient mutant SSTR2D314 incorporated into tumor and can be targeted with a therapeutic for inhibiting tumor growth (FIG. 8). […] Human ovarian cancer (Hey A8) cells were co-injected subcutaneously in nude mice with HS5 cells expressing or not expressing HA-SSTR2D314. […] Once tumors were established, 90Y-octreotate was delivered intravenously. Tumors were measured by calipers every two days. Tumors incorporating HS5 cells expressing the HA-SSTR2D314 mutant were growth inhibited compared to control (*p<0.05, HeyA8+HS5-SSTR2D314 vs HeyA8+HS5vector). The incorporated stem cells, but not the tumor cells, serve as a target for the therapeutic.

Experiment [8] relates to Human ovarian cancer (Hey A8) tumors to which HS5 cells homed. As to the kind of experiment: Growth of Hey A8 tumors after systemic (intracardiac) injection of HS5 cells expressing or not expressing HA-SSTR2D314. In kind it is in vivo, nude mice. The conditions noted are these: HeyA8 tumors, intravenous. How it is done: FIG. 9: Stem cells expressing the signaling deficient mutant SSTR2D314 home to and incorporate into tumor and can be targeted with a therapeutic for inhibiting tumor growth.
Stem cells expressing the signaling deficient mutant SSTR2D314 home to and incorporate into tumor and can be targeted with a therapeutic for inhibiting tumor growth (FIG. 9). […] Human ovarian cancer (Hey A8) cells on one side and vehicle on the other side were injected subcutaneously in nude. Two days later, human mesenchymal stem cells (HS5 cells) expressing or not expressing HA-SSTR2D314 were injected systemically (intracardiac). […] Tumors were seen on the side injected with HeyA8 cells. Once tumors were established, 90Y-octreotate was delivered intravenously. Tumors were measured by calipers every two days. Tumors to which HS5 cells expressing the HA-SSTR2D314 mutant homed and incorporated were growth inhibited compared to control (*p<0.05, HeyA8+HS5-SSTR2D314 vs HeyA8+HS5vector). The incorporated stem cells not the tumor cells serve as a target for the therapeutic.

Where [9] appears, read: stably transfected HT1080 cells.

“Also recorded” adds a separate entry of the source. Where two headings read alike, the source gives them in different places.

With “HA-SSTR2D314: signaling deficient human SSTR2 truncated carboxy terminal to amino acid 314 (amino acids 1-314 of SEQ ID NO:6), HA-tagged”, the “cell growth (cell number by MTT assay)” value in experiment [1] (setting [9]) is listed as “does not inhibit cellular growth upon ligand stimulation”.

For “HA-SSTR2D340: constitutively active human SSTR2 mutant, C-terminal amino acids after position 340 deleted (amino acids 1-340 of SEQ ID NO:6), HA-tagged”, the “cell growth (cell number by MTT assay)” value in experiment [1] (setting [9]) was “inhibits growth even without ligand stimulation”; in experiment [1] (transiently transfected HT1080 cells), “inhibit growth even without ligand stimulation”. For the same substance, in experiment [2], the “tumor growth (size by calipers)” value is reported as “inhibits the growth of tumor cells in vivo”.

As for [^90Y-DOTA]-octreotate [90Y-DOTATATE], in experiment [3], the “bystander cell death (live/dead staining)” value is on record as “Rosettes (clusters) of dead cells were seen”. In addition, the “teratoma growth (calipers)” value in experiment [4] is “not tumors derived from wild type ES cells”. Also, the “tumor growth (calipers)” value is “inhibited growth of tumors expressing wild-type or signaling deficient receptors; also recorded: decreased in size in a dose dependent manner” in experiment [5] (tumors expressing signaling deficient receptor (HA-D314), once 1 mCi or twice 2 mCi and 1 mCi, listed as 90Y-octreotate); “inhibited growth of tumors expressing wild-type or signaling deficient receptors” in experiment [5] (tumors expressing wild-type receptor, once 1 mCi or twice 2 mCi and 1 mCi); “not tumors derived from vector transfected cells” in experiment [5] (tumors from vector transfected cells, once 1 mCi or twice 2 mCi and 1 mCi); “inhibited growth of human tumors incorporating HS5 human mesenchymal stem cells expressing SSTR2D314” in experiment [7] (HeyA8+HS5-SSTR2D314 co-injected subcutaneously); “not control HS5 cells” in experiment [7] (HeyA8+control HS5 (vector) co-injected subcutaneously); “inhibited growth of human tumors to which human mesenchymal stem cells expressing HA-SSTR2D314 homed and incorporated” in experiment [8] (HS5 expressing HA-SSTR2D314 injected intracardiac). For the same substance, the “tumor growth (calipers)” value in experiment [8] (control HS5 injected intracardiac) is “not control HS5 cells”. Besides, the “cell death (trypan blue uptake)” value in experiment [6] (HT1080 cells expressing signaling deficient HA-SSTR2, exposure 1 hour and 72 hours) is “Dose dependent and time dependent killing was observed”; in experiment [6] (HT1080 cells expressing wild-type HA-SSTR2, exposure 1 hour and 72 hours) it was “Dose dependent and time dependent killing was observed”.

With octreotide, the “tumor growth (calipers)” value is recorded as “no decrease in tumor size was seen” in experiment [5] (tumors expressing signaling deficient receptor (HA-D314), daily injections); “inhibited growth of tumors expressing wild-type receptor” in experiment [5] (tumors expressing wild-type receptor, daily injections); “not the signaling deficient receptor or tumors derived from vector transfected cells” in experiment [5] (tumors from vector transfected cells, daily injections).

Turning to “wild-type SSTR2: HA-tagged wild-type (full length) human somatostatin receptor type 2”, the “cell growth (cell number by MTT assay)” value in experiment [1] (setting [9]) is listed as “require ligand stimulation to inhibit growth”.

These data come from US12691179B2, “Somatostatin receptor-based cancer therapy” (Vikas Kundra, priority 2010, dated 2026).
